# System: 252836-082-R-J2-PDC tumor spheroids, viability
# Experiment: Anticancer human tumor 252836-082-R-J2-PDC patient-derived head and neck squamous cell carcinoma cell line growth inhibition [PI3K]
# Conditions: spheroids with HUVEC and MSC; for viability, T/C: stronger effect = lower value
# Outline: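 Tumor cells were combined with HUVEC and MSCs into spheroids, then dosed with PI3K-inhibitor combinations over half-log ranges capped near clinical Cmax or 10 microM.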
# [1] = curve of first compound, second compound 0.0316 µM
# [2] = curve of first compound, second compound 0.1 µM
# [3] = curve of first compound, second compound 0.316 µM
# [4] = curve of first compound, second compound 1 µM
# [5] = curve of first compound, second compound 3.16 µM
# [6] = curve of first compound, second compound 10 µM
# [7] = second compound 0.0316 µM, first compound 0.0316 µM
# [8] = second compound 0.0316 µM, first compound 0.1 µM
# [9] = second compound 0.0316 µM, first compound 0.316 µM
# [10] = second compound 0.0316 µM, first compound 1 µM
# [11] = second compound 0.0316 µM, first compound 3.16 µM
# [12] = second compound 0.0316 µM, first compound 10 µM
# [13] = second compound 0.1 µM, first compound 0.0316 µM
# [14] = second compound 0.1 µM, first compound 0.1 µM
# [15] = second compound 0.1 µM, first compound 0.316 µM
# [16] = second compound 0.1 µM, first compound 1 µM
# [17] = second compound 0.1 µM, first compound 3.16 µM
# [18] = second compound 0.1 µM, first compound 10 µM
# [19] = second compound 0.316 µM, first compound 0.0316 µM
# [20] = second compound 0.316 µM, first compound 0.1 µM
# [21] = second compound 0.316 µM, first compound 0.316 µM
# [22] = second compound 0.316 µM, first compound 1 µM
# [23] = second compound 0.316 µM, first compound 3.16 µM
# [24] = second compound 0.316 µM, first compound 10 µM
# [25] = second compound 1 µM, first compound 0.0316 µM
# [26] = second compound 1 µM, first compound 0.1 µM
# [27] = second compound 1 µM, first compound 0.316 µM
# [28] = second compound 1 µM, first compound 1 µM
# [29] = second compound 1 µM, first compound 3.16 µM
# [30] = second compound 1 µM, first compound 10 µM
# [31] = second compound 3.16 µM, first compound 0.0316 µM
# [32] = second compound 3.16 µM, first compound 0.1 µM
# [33] = second compound 3.16 µM, first compound 0.316 µM
# [34] = second compound 3.16 µM, first compound 1 µM
# [35] = second compound 3.16 µM, first compound 3.16 µM
# [36] = second compound 3.16 µM, first compound 10 µM
# [37] = second compound 10 µM, first compound 0.0316 µM
# [38] = second compound 10 µM, first compound 0.1 µM
# [39] = second compound 10 µM, first compound 0.316 µM
# [40] = second compound 10 µM, first compound 1 µM
# [41] = second compound 10 µM, first compound 3.16 µM
# [42] = second compound 10 µM, first compound 10 µM
# 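Further: spheroids exposed to agents for seven days before readout.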
# 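Wherever viability, T/C is given: percent of vehicle DMSO control viability so 100% = untreated growth.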
smiles,measurement,setting,value
C=CC(=O)N1CCN(c2nc(=O)n(-c3c(C)ccnc3C(C)C)c3nc(-c4c(O)cccc4F)c(F)cc23)C(C)C1 (stereo not given) + Cc1nc(NC(=O)N2CCCC2C(N)=O)sc1-c1ccnc(C(C)(C)C(F)(F)F)c1,IC50,[1],> 10 µM
same,IC50,[2],> 10 µM
same,IC50,[3],> 10 µM
same,IC50,[4],> 10 µM
same,IC50,[5],< 0.0316 µM
same,IC50,[6],< 0.0316 µM
same,"viability, T/C",[7],101%
same,"viability, T/C",[8],87.1%
same,"viability, T/C",[9],104%
same,"viability, T/C",[10],95.7%
same,"viability, T/C",[11],107%
same,"viability, T/C",[12],107%
same,"viability, T/C",[13],78.5%
same,"viability, T/C",[14],82.1%
same,"viability, T/C",[15],101%
same,"viability, T/C",[16],79.5%
same,"viability, T/C",[17],105%
same,"viability, T/C",[18],95.8%
same,"viability, T/C",[19],79.9%
same,"viability, T/C",[20],83.2%
same,"viability, T/C",[21],76%
same,"viability, T/C",[22],86.5%
same,"viability, T/C",[23],84.5%
same,"viability, T/C",[24],80.9%
same,"viability, T/C",[25],61.2%
same,"viability, T/C",[26],60.4%
same,"viability, T/C",[27],80.3%
same,"viability, T/C",[28],73%
same,"viability, T/C",[29],64.9%
same,"viability, T/C",[30],75.9%
same,"viability, T/C",[31],47.2%
same,"viability, T/C",[32],49.1%
same,"viability, T/C",[33],50.2%
same,"viability, T/C",[34],49.2%
same,"viability, T/C",[35],74%
same,"viability, T/C",[36],44.9%
same,"viability, T/C",[37],37.2%
same,"viability, T/C",[38],34.5%
same,"viability, T/C",[39],36.3%
same,"viability, T/C",[40],36.5%
same,"viability, T/C",[41],40.2%
same,"viability, T/C",[42],42.2%
C=CC(=O)N1CCN(c2nc(=O)n(-c3c(C)ccnc3C(C)C)c3nc(-c4c(O)cccc4F)c(F)cc23)C(C)C1 (stereo not given) + CC(Nc1ncnc2nc[nH]c12)c1cc2cccc(Cl)c2c(=O)n1-c1ccccc1,IC50,[1],> 10 µM
same,IC50,[2],> 10 µM
same,IC50,[3],> 10 µM
same,IC50,[4],> 10 µM
same,IC50,[5],> 10 µM
same,IC50,[6],> 10 µM
same,"viability, T/C",[7],94.3%
same,"viability, T/C",[8],95.8%
same,"viability, T/C",[9],103%
same,"viability, T/C",[10],103%
same,"viability, T/C",[11],105%
same,"viability, T/C",[12],98%
same,"viability, T/C",[13],88.5%
same,"viability, T/C",[14],92.5%
same,"viability, T/C",[15],96.1%
same,"viability, T/C",[16],89.8%
same,"viability, T/C",[17],96.3%
same,"viability, T/C",[18],100%
same,"viability, T/C",[19],91%
same,"viability, T/C",[20],96.6%
same,"viability, T/C",[21],107%
same,"viability, T/C",[22],99.7%
same,"viability, T/C",[23],104%
same,"viability, T/C",[24],90.5%
same,"viability, T/C",[25],85.7%
same,"viability, T/C",[26],90.4%
same,"viability, T/C",[27],118%
same,"viability, T/C",[28],102%
same,"viability, T/C",[29],108%
same,"viability, T/C",[30],123%
same,"viability, T/C",[31],74.9%
same,"viability, T/C",[32],70.3%
same,"viability, T/C",[33],74.7%
same,"viability, T/C",[34],86.2%
same,"viability, T/C",[35],93.3%
same,"viability, T/C",[36],82.7%
same,"viability, T/C",[37],72.5%
same,"viability, T/C",[38],57.5%
same,"viability, T/C",[39],69.4%
same,"viability, T/C",[40],72.8%
same,"viability, T/C",[41],94.9%
same,"viability, T/C",[42],74.9%
CC(Nc1ncnc2nc[nH]c12)c1cc2cccc(Cl)c2c(=O)n1-c1ccccc1 (stereo not given),"viability, T/C",compound 0.0316 µM,96.2% [middle of 8 runs]
same,"viability, T/C",compound 0.1 µM,95.5% [middle of 8 runs]
same,"viability, T/C",compound 0.316 µM,97.4% [middle of 8 runs]
same,"viability, T/C",compound 3.16 µM,78.1% [middle of 8 runs]
same,"viability, T/C",compound 10 µM,64.3% [middle of 8 runs]
same,IC50,"compound alone, run of 06/13/2023",> 10 µM
